B1: mAb11729: anti-hemagglutinin (anti-HA) monoclonal antibody, HCVR SEQ ID NO: 18, LCVR SEQ ID NO: 26 (antibody, V domains shown)
VH: QVQLVQSGAEVKKSGSSVKVSCKASGGTFSSYAISWVRQAPGQGLEWMGGIIPIFGTPSYAQKFQDRVTITTDESTSTVYMELSSLRSEDTAVYYCARQQPVYQYNMDVWGQGTTVTVSS
VL: DIQMTQSPSSLSASVGDRVTITCRASQGIRNNLGWYQQKPLKAPKRLIYAASSLQSGVPSRFSGSGSGTEFTLTISSLQPEDFATYYCLQYNNYPWTFGQGTKVEIK

What was measured:
[1] = test system: influenza A/H1N1/PR8 virus; test: microbe, parasite or virus in culture; format: cell-based, H1N1 A/Puerto Rico/08/1934 influenza virus; conditions: for Fold increase over parental antibody: relative to mAb11729 of the same run
[2] = test system: influenza A/H3N2/HK68x31 virus; test: Antiviral efficacy assay, HK68x31; format: cell-based
[3] = test system: influenza A/H1N1/Cal09 virus; test: Antiviral efficacy assay, Cal09; format: cell-based; conditions: relative to mAb11729

Molecule | IC50 ([1]; MDCK London cells, Runs 1-4) [nM] | Fold increase over parental antibody [1] [fold] | IC50 [2] [nM] | Fold increase over parental antibody [3] [fold]
O=C(O)[C@H]1C2CCC(CC2)[C@@H]1Nc1nc(-c2c[nH]c3ncc(F)cc23)ncc1F [VX-787, reference compound] | 9.46 | 3.32 | 7.05 | –
B1 | – | 1.00 | – | 1.00

— patent US12564640B2, “Protein-antiviral compound conjugates” (priority 2020, dated 2026)
